For assay [1], the target named is T1, human D4 receptor (D4.2 sub-type) (Homo sapiens, UniProt P21917, DEL265-296).
T1 construct: expressed in transfected cells; host or cells: HEK 298 (so in the source); probably HEK 293), stably transfected, membrane preparation
T1 sequence (P21917 with tags, fused parts or gaps DEL265-296): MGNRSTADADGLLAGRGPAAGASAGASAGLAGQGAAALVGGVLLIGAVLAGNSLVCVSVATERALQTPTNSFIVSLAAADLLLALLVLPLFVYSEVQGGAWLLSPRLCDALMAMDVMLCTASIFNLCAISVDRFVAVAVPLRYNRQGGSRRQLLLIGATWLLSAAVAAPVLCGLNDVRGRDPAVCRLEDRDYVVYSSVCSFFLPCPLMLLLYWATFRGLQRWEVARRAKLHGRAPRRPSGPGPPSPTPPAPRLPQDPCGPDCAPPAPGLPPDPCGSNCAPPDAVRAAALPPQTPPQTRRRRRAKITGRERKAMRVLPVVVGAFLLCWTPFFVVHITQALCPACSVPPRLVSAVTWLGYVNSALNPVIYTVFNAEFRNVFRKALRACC
Put plainly: D4 receptor binding, 3H-spiperone displacement. The following applies: membranes of cells stably transfected with human D4.2; 0.25 nM 3H-spiperone; Cheng-Prusoff. As to the method:
The potency of the test compound to reduce ^3 H-spiperone binding directly correlated to its binding affinity for the receptor.
Individual filter disks were put in scintillation vials (Biovials, Bechman).
Ki was calculated by the Cheng and Prustoff transformation: […]
where [L] is the concentration of ^3 H-spiperone used in the assay and KD is the dissociation constant of ^3 H-spiperone determined independently under the same binding conditions.

Assay [2] deals with T2, human D2 receptor (short isoform) (Homo sapiens, UniProt P14416).
T2 construct: expressed in transfected cells; host or cells: GH4 C1 (rat pituitary) cells, stably transfected, membrane preparation
The experiment in a line: D2 receptor binding, 3H-spiperone displacement. The following applies: membranes of GH4 C1 (rat pituitary) cells stably transfected with human D2 short isoform; 0.25 nM 3H-spiperone; Cheng-Prusoff. As to the method: D2 and D4 receptor-binding affinities of the compounds of Example 3 were evaluated as described in WO95/17400 (incorporated herein by reference) for their ability to reduce binding of ^3 H-spiperone as compared to the reference compound clozapine. The potency of the test compound to reduce ^3 H-spiperone binding directly correlated to its binding affinity for the receptor.
Briefly, the D4 receptor was utilized in the form of membrane preparations obtained from […] cells stably transfected with human D4 receptor (D4.2 sub-type). […] Ready Protein Plus liquid scintillant (5 ml, Beckman) was added and the vials counted by liquid scintillation spectrophotometry (Beckman LSC 6500) after equilibrating for three hours at room temperature to determine total binding (Br).
Non-specific binding for D4 was assayed by incubating membrane homogenate, ^3 H-spiperone and fresh dopamine. Filtrate was counted using the same procedure as in the total binding assay described above to give the non-specific binding value (NSB). Non-specific binding for D2 was similarly assessed, with the exception that (-)-sulpiride was used in place of dopamine.
To assess displacement, membrane homogenate was incubated with ^3 H-spiperone and test compound dissolved in DMSO. Filtrate was counted using the same procedure as in the total binding assay described above, to give the displacement binding value (BD). […]

This passage reports Ki results from patent US5725838A, “Radiolabeled D4 receptor ligands” (Resolution Pharmaceuticals, Inc., priority 1996, dated 1998).

T2 sequence (P14416 1-414 isoform P14416-2): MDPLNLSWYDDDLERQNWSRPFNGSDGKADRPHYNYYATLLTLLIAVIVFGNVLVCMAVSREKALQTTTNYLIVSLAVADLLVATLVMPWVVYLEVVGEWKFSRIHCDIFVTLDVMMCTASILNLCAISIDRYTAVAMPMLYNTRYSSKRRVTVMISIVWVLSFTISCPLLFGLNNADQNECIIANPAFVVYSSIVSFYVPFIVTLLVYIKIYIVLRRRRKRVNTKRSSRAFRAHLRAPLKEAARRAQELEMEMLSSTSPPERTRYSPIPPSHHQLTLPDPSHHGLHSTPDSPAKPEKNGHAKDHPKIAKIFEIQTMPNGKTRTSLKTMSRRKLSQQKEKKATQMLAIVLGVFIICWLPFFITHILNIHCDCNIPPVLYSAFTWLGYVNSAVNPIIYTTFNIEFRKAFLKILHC

Take `Ic1ccc(N2CCN(Cc3c[nH]c4ncccc34)CC2)cc1` [3-[4-(4-iodophenyl)-piperazin-1-yl]methyl-1H-pyrrolo[2,3-b]pyridine]: the Ki was found to be 0.16 nM in assay [1] and 2370 nM in assay [2].
